The results in this text go back to EPA's ToxValDB 9.5 (doi:10.2903/j.efsa.2011.1958).

SMILES strings stand for the structures. In brackets after ≈: the same amount, converted by molar mass. Several values for one entry are separate records, joined by “and”; a condition that tells them apart may be missing. Equal values may be shown once.

The subject of one series is Aphidius rhopalosiphi. The series is described as follows: LR50; higher = less toxic. Particulars: acute; duration: 7 days; reproduction.
In another series the test system is Typhlodromus pyri. The series is described as follows: LR50; higher = less toxic. The conditions noted are these: acute; duration: 48 hours; reproduction.
A further series has as its system Pimephales promelas. The conditions noted are these: chronic/long-term; duration: 28 days; growth.
The test system of another series is Tagia sp. The conditions noted are these: acute; duration: 14 days; mortality.
Another series concerns Anas platyrhynchos. Particulars: acute; oral; unspecified; mortality.
Another series has as its system Oncorhynchus mykiss. Particulars: acute; duration: 96 hours; mortality.
In the next series the test system is Landoltia sp. The conditions noted are these: acute; duration: 14 days; growth.
The subject of a further series is Daphnia magna. Particulars: chronic/long-term; duration: 21 days; reproduction.
The test system of another series is Colinus virginianus. The conditions noted are these: acute, oral, mortality.
The subject of another series is Apis mellifera. The conditions noted are these: acute; duration: 48 hours; oral; unspecified; mortality.

As for `CN(C)C(=O)Nc1cccc(C(F)(F)F)c1` [Fluometuron], the LR50 in the series with Aphidius rhopalosiphi was determined as 398 g/ha; in the series on Typhlodromus pyri, 28.9 g/ha. For the same compound, the LD50 with Rattus norvegicus (acute, oral, mortality) is greater than 5000 mg/kg; in the series with Anas platyrhynchos it was 2970 mg/kg; in the series with Colinus virginianus, greater than 2150 mg/kg; in the series with Apis mellifera it was greater than 34 µg/piece. The NOAEL in the series with Rattus norvegicus (chronic, duration: 104 weeks, hematological) was 0.553 mg/kg-day; in the series with Rattus norvegicus (reproduction developmental, other) it was 0.8 mg/kg-day. Moreover, the NOEL with Rattus norvegicus (developmental, development) is 24 mg/kg-day. The NOEC came out at 3.1 mg/L with Pimephales promelas, 0.185 mg/L in the series with Landoltia sp. and 6.6 mg/L in the series on Daphnia magna. Also, the LC50 with Tagia sp. was 1000 mg/kg; with Oncorhynchus mykiss, 30 µg/mL (≈ 129 µM); in the series with Colinus virginianus (diet) it was > 1600 mg/kg and 4310 mg/kg.

Broadly, the NOAEL is the highest dose or exposure tested at which no adverse effect was seen.
